Data on ten molecules can be found in patent EP4755877A1, “MODIFIED FLAVONE COMPOUNDS AND USE THEREOF” (Suzhou Glenkol Pharma Technology Co., Ltd., priority 2023, dated 2025).

The structures appear in SMILES notation. pEC50: −log10 of the molar value. Where two headings read alike, the source gives them in different places. Where only a bound is given, the exact number is not on record here.

A short description of data set [1]: Pharmacokinetics in rats after intravenous and oral gavage dosing, plasma LC-MS/MS. To be noted: rat. The data set is classed as in vivo. The protocol:
Preparation of intravenous bolus administration formulations: A graduation line for the final volume was marked on a clean and dry container. An appropriate amount of the test sample was weighed and added to the container to prepare a solution with a final concentration of 1 mg/mL.
Preparation of oral gavage administration formulations: A graduation line for the final volume was marked on a clean and dry container. An appropriate amount of the test sample was weighed and added to the container to prepare a solution with a final concentration of 3 mg/mL.
After preparation, the formulations were stored at room temperature and used on the day of preparation. A total of 2 groups of rats were set up, with […] per group (half male and half female). The compounds were administered to the rats at a dose of 1 mg/kg via intravenous injection and 15 mg/kg via oral gavage, respectively. All animals were allowed free access to food and water.
Intravenous administration: Before administration (0 h) and at 0.083, 0.167, 0.5, 1.0, 2.0, 4.0, 6.0, and 24 h after administration, 0.2 mL of blood samples were collected from the jugular vein and transferred to anticoagulant tubes (pre-cooled in advance for at least 5 minutes). The tubes were gently inverted several times to fully mix the blood with the anticoagulant. The blood samples were centrifuged at 4 °C for 10 minutes to separate the plasma. 95 µ L of plasma was collected and transferred to a centrifuge tube, which was stored in a refrigerator at below -80 °C until analysis.
Single oral gavage administration: Before administration (0 h) and at 0.167, 0.5, 1.0, 2.0, 4.0, 6.0, and 24 h after administration, 0.2 mL of blood samples were collected from the jugular vein and transferred to anticoagulant tubes. The sample processing method was the same as described above.
The concentration of the compounds in plasma was determined by LC-MS/MS, and data acquisition was performed using Analyst 1.6.3 software (AB Sciex). The pharmacokinetic parameters of the rats after administration were calculated using the non-compartmental model in Phoenix WinNonlin software.
7,8-dihydroxyflavone served as the control drug for comparing the pharmacokinetic characteristics of various compound. Table 3: PK parameters of various compound

In another data set the test system is PC-12 cells. Put plainly: Glutamate-induced excitotoxic death of PC-12 cells, survival by propidium iodide/Hoechst staining. The data set is classed as cell-based, rat. To be noted: for Enhancement of Cell Survival Rate: PC-12 cells, glutamate-induced death, compound at 100 nM; for pEC50: Rattus norvegicus, promotion of PC-12 survival under glutamate stimulation, 30 min pretreatment, 1 pM-100 µM, 24 h glutamate. As for the experimental part: PC-12 cells (a […] cell line derived from rat adrenal medulla) were cultured in DMEM/F12 complete medium until 80-90% confluency. After being digested, collected, and resuspended, the cells were seeded into 24-well plates pre-coated with coverslips at a density of 5×10^4 cells per well. Following 26 hours of cell culture, glutamate-induced excitotoxic cell death modeling was performed. The modeling method was as follows: an appropriate amount of glutamate was weighed and dissolved in DMEM/F12 medium to prepare a stock solution; after filtration, the stock solution was diluted with the same medium, and the cells were administered with the diluted solution by medium replacement. After administration, the cells were further incubated for 24 hours.
Prior to glutamate modeling, cells incubated in the previous step were pretreated with small-molecule compounds listed in Table 1 at concentrations of 1 pM, 10 pM, 100 pM, 1 nM, 10 nM, 100 nM, 1 µM, 10 µM, and 100 µM for 30 minutes, followed by glutamate stimulation.
The cells treated with the compounds were stained with propidium iodide to assess cell death. After the medium was discarded, the cells were washed with PBS. Subsequently, propidium iodide/Hoechst was added. Following incubation for 30 minutes, the staining solution was removed, and the cells were washed with PBS again before being fixed and mounted on slides. Image acquisition was performed under a fluorescence microscope. The propidium iodide-positive cells and Hoechst-positive cells in the collected images were counted to calculate the cell survival rate. The survival rate was calculated using the formula: Cell survival rate = (1 - Number of Propidium Iodide-positive cells / Number of Hoechst-positive cells) × 100%. The gradient concentrations of the small molecule compounds and the corresponding normalized survival rates were imported into Prism software, and EC50 values were calculated using a non-linear regression model. 7,8-dihydroxyflavone was used as the positive control drug. Table 1: Dose-response relationship study of various compounds in promoting PC-12 neurocytes survival
Based on the aforementioned dose-response relationship study of the compounds, the inhibitory effects of different small molecule compounds on glutamate-induced excitotoxic death of PC-12 cells were further compared at the same dose (100 nM). Table 2: Study on the promoting effects of various compounds on PC-12 neurocytes survival

The mark [2] stands for this setting: in vivo, SD rats, plasma, 15 mg/kg oral gavage / 1 mg/kg intravenous, table does not state the route.
Where [3] appears, read: in vivo, SD rats, plasma, 15 mg/kg oral gavage / 1 mg/kg intravenous, table does not state the route, read-out: t1/2 (converted).
[4] abbreviates: in vivo, SD rats, 15 mg/kg oral gavage vs 1 mg/kg intravenous, read-out: Oral Bioavailability F (%).
[5] abbreviates: both sexes, Sprague-Dawley, SD rats, plasma, 15 mg/kg oral gavage / 1 mg/kg intravenous, table does not state the route.

Consider `[2H]c1c([2H])c([2H])c(-c2cc(=O)c3ccc(O[C@@H]4O[C@H](C(=O)O)[C@@H](O)[C@H](O)[C@H]4O)c(O)c3o2)c([2H])c1[2H]` [Compound S25], for which the Cmax – broadly, the maximum level reached in the sampled fluid or tissue – in data set [1] (setting [2]) worked out at 3590 nM. Also, the half-life in data set [1] (setting [3]) is 5.38 h. Moreover, in data set [1] (setting [4]), the bioavailability worked out at 52%.
As for `COc1ccc2c(=O)cc(C3CCNCC3)oc2c1O` [Compound S29], in data set [1] (setting [2]), the AUC(0-t) (usually exposure summed from dosing to a finite time, without extrapolation to infinity) was determined as 0.331 µM·h and the Cmax is 91.3 nM. Besides, the half-life in data set [1] (setting [3]) is 2.57 h. In addition, the bioavailability in data set [1] (setting [4]) was found to be 3.38%. In the data set with PC-12 cells, the “Enhancement of Cell Survival Rate” value is recorded as 73.51%.
In the case of `O=c1cc(-c2ccccc2)oc2c(O)c(O)ccc12` [7,8-dihydroxyflavone, 7,8-dihydroxyflavone, reference compound], in data set [1] (both sexes, Sprague-Dawley, plasma, SD rats, 15 mg/kg oral gavage vs 1 mg/kg intravenous, read-out: Oral Bioavailability F (%)), the bioavailability came out at 1.9%. In data set [1] (setting [5]), this molecule came in with an AUC(0-t) of 0.1 µM·h and a Cmax of 75.1 nM. Further, the half-life in data set [1] (both sexes, Sprague-Dawley, SD rats, plasma, 15 mg/kg oral gavage / 1 mg/kg intravenous, table does not state the route, read-out: t1/2 (converted)) was 3.32 h. For the same molecule, in the data set with PC-12 cells, the “Enhancement of Cell Survival Rate” value is on record as 33.58% and the pEC50 (commonly the negative decadic logarithm of the EC50, by convention in mol/L) is 9.80.
As for `O=c1cc(C2CCNCC2)oc2c(O[C@@H]3OC[C@@H](O)[C@H](O)[C@H]3O)c(O)ccc12` [Compound S27], the half-life in data set [1] (in vivo) is 1.77 h.
In data set [1] (setting [2]), `O=c1cc(C2CCNCC2)oc2c(F)c(F)ccc12` [Compound S30] returned an AUC(0-t) of 10.3 µM·h and a Cmax of 1260 nM. Moreover, in data set [1] (setting [3]), the half-life was 11.4 h. Also, the bioavailability in data set [1] (setting [4]) worked out at 112%. Further, in the data set on PC-12 cells, the “Enhancement of Cell Survival Rate” value is on record as 83.78%.
Consider `O=c1cc(C2CCNCC2)oc2c(F)c(O)ccc12` [Compound S26], for which, in data set [1] (setting [2]), the AUC(0-t) came to 0.252 µM·h and the peak level (Cmax) was 68.1 nM. In data set [1] (setting [3]), the half-life is 4.54 h.
In turn, `O=c1cc(C2CCNCC2)oc2c(O[C@@H]3O[C@H](CO)[C@@H](O)[C@H](O)[C@H]3O)c(O)ccc12` [Compound S28] gave a half-life in data set [1] (in vivo) of 16.7 h. Also, the bioavailability in data set [1] (in vivo, po, 15 mg/kg) was determined as 2.72%. The “Enhancement of Cell Survival Rate” value in the data set with PC-12 cells amounted to 43.06%.
In data set [1] (setting [2]), `O=C(O)[C@H]1O[C@@H](Oc2c(O)ccc3c(=O)cc(-c4ccccc4)oc23)[C@H](O)[C@@H](O)[C@@H]1O` [Compound S7] registered an AUC(0-t) of 2.36 µM·h and a Cmax of 245 nM. Also, the bioavailability in data set [1] (setting [4]) was determined as 66.9%. Besides, the pEC50 with PC-12 cells was 10.95.
For the molecule `O=c1cc(C2CCNCC2)oc2c(O)c(O)ccc12` [Compound S12], in data set [1] (setting [2]), the AUC(0-t) was 0.151 µM·h and the Cmax was 113 nM. Moreover, the half-life in data set [1] (setting [3]) is 1.84 h. Also, the bioavailability in data set [1] (setting [4]) is 1.9%. In addition, the pEC50 with PC-12 cells is over 12.00.
In the case of `O=c1cc(-c2ccccc2)oc2c(F)c(O)ccc12` [Compound S1], in data set [1] (setting [2]), the AUC(0-t) amounted to 0.181 µM·h and the highest concentration (Cmax) amounted to 94.9 nM. The pEC50 in the data set on PC-12 cells is 10.92.
